# Assay results published in patent US20260028354A1, “TETRAHYDRONAPHTHALENE DERIVATIVES AS ESTROGEN RECEPTOR DEGRADERS” (REGENT OF THE UNIVERSITY OF MICHIGAN, priority 2022, published 2026).
# Test: Western blot analysis for "B" compounds
# Format: cell-based
# Conditions: read-out: Traditional Western Degradation Potency (DC50)
# Procedure: Western Blot Analysis. Western blot analysis was performed essentially as described previously. The cells treated with indicated compounds were lysed in Radioimmunoprecipitation Assay Protein Lysis and Extraction Buffer (25 mmol/I. Tris.HCl, pH 7.6, 150 mmol/L, NaCl, 1% Nonidet P-40, 1% sodium deoxycholate, and 0.1% sodium dodecyl sulfate) containing proteinase inhibitor cocktail (Roche Diagnostics, Mannheim, Germany). Equal amounts of total protein were electrophoresed through 10% SDS-polyacrylamide gels after determination of protein concentration by BCA assay (Fisher Scientific, Pittsburgh, PA), The separated protein bands were transferred onto PVDF membranes (GE Healthcare Life Sciences, Marlborough, MA) and blotted against different antibodies, as indicated. The blots were scanned, and the band intensities were quantified using GelQuant.NET software provided by biochemlabsolutions.com. The relative mean intensity of target proteins was expressed after normalization to the intensity of glyceraldehyde-3-phosphate dehydrogenase bands.
row,SMILES,DC50 [nM]
1,"O=C1CCC(N2C(=O)c3cc4c(cc3C2=O)CN(C(=O)CN2CCC3(CC2)CCN(c2ccc([C@@H]5c6ccc(O)cc6CC[C@@H]5c5ccccc5)c(F)c2)C3)C4)C(=O)N1 (mixture of isomers) [Compound B32, 2-(2,6-dioxopiperidin-3-yl)-6-(2-(2-(3-fluoro-4-((1S,2S)-6-hydroxy-2-phenyl-1,2,3,4-tetrahydronaphthalen-1-yl)phenyl)-2,8-diazaspiro[4.5]decan-8-yl)acetyl)-6,7-dihydropyrrolo[3,4-f]isoindole-1,3(2H,5H)-dione]",> 100
2,"O=C1CCC(N2C(=O)c3cc4c(cc3C2=O)CN(C(=O)CN2CCC3(CC2)CCN(c2ccc([C@@H]5c6ccc(O)cc6CC[C@@H]5c5ccccc5)cc2F)C3)C4)C(=O)N1 (mixture of isomers) [Compound B33, 2-(2,6-dioxopiperidin-3-yl)-6-(2-(2-(2-fluoro-4-((1R,2S)-6-hydroxy-2-phenyl-1,2,3,4-tetrahydronaphthalen-1-yl)phenyl)-2,8-diazaspiro[4.5]decan-8-yl)acetyl)-6,7-dihydropyrrolo[3,4-f]isoindole-1,3(2H,5H)-dione]",> 100
3,"O=C1CCC(N2C(=O)c3cc4c(cc3C2=O)CN(C(=O)CN2CCC3(CC2)CCN(c2c(F)cc([C@@H]5c6ccc(O)cc6CC[C@@H]5c5ccccc5)cc2F)C3)C4)C(=O)N1 (mixture of isomers) [Compound B34, 6-(2-(2-(2,6-difluoro-4-((1R,2S)-6-hydroxy-2-phenyl-1,2,3,4-tetrahydronaphthalen-1-yl)phenyl)-2,8-diazaspiro[4.5]decan-8-yl)acetyl)-2-(2,6-dioxopiperidin-3-yl)-6,7-dihydropyrrolo[3,4-f]isoindole-1,3(2H,5H)-dione]",> 100
4,"O=C1CCC(N2C(=O)c3cc4c(cc3C2=O)CN(CC2CCN(C(=O)C3CN(c5ccc([C@@H]6c7ccc(O)cc7CC[C@@H]6c6ccccc6)cc5)C3)CC2)C4)C(=O)N1 (mixture of isomers) [Compound B35, 2-(2,6-dioxopiperidin-3-yl)-6-((1-(1-(4-((1R,2S)-6-hydroxy-2-phenyl-1,2,3,4-tctrahydronaphthalcn-1-yl)phcnyl)azctidinc-3-carbonyl)piperidin-4-yl)methyl)-6,7-dihydropyrrolo[3,4-f]isoindole-1,3(2H,5H)-dione]",10 to 100
5,"O=C1CCC(N2C(=O)c3cc4c(cc3C2=O)CN(C(=O)CN2CCC3(CC2)CCN(c2ccc([C@@H]5c6ccc(B(O)O)cc6CC[C@@H]5c5ccccc5)cc2)CC3)C4)C(=O)N1 (mixture of isomers) [Compound B51, ((5R,6S)-5-(4-(9-(2-(6-(2,6-dioxopiperidin-3-yl)-5,7-dioxo-3,5,6,7-tetrahydropyrrolo[3,4-f]isoindol-2(1H)-yl)-2-oxoethyl)-3,9-diazaspiro[5.5]undecan-3-yl)phenyl)-6-phenyl-5,6,7,8-tetrahydronaphthalen-2-yl)boronic acid]",> 100
6,"O=C1CCC(N2C(=O)c3cc4c(cc3C2=O)CN(CC(=O)N2CCC3(CC2)CCN(c2ccc([C@H]5c6ccc(O)cc6CC[C@H]5c5ccccc5)cn2)CC3)C4)C(=O)N1 (mixture of isomers) [Compound B81, 2-(2,6-dioxopiperidin-3-yl)-6-(2-(9-(5-((1R,2R)-6-hydroxy-2-phenyl-1,2,3,4-tetrahydronaphthalen-1-yl)pyridin-2-yl)-3,9-diazaspiro[5.5]undecan-3-yl)-2-oxoethyl)-6,7-dihydropyrrolo[3,4-f]isoindole-1,3(2H,5H)-dione]",> 100
7,"O=C1CCC(N2C(=O)c3cc4c(cc3C2=O)CN(CC(=O)N2CCC3(CC2)CCN(c2ncc([C@H]5c6ccc(O)cc6CC[C@H]5c5ccccc5)cn2)CC3)C4)C(=O)N1 (mixture of isomers) [Compound B82, 2-(2,6-dioxopiperidin-3-yl)-6-(2-(9-(5-((1R,2R)-6-hydroxy-2-phenyl-1,2,3,4-tetrahydronaphthalen-1-yl)pyrimidin-2-yl)-3,9-diazaspiro[5.5]undecan-3-yl)-2-oxoethyl)-6,7-dihydropyrrolo[3,4-f]isoindole-1,3(2H,5H)-dione]",> 100
